Data set [1] has as its target T1, Indoleamine 2,3-dioxygenase 1 (Homo sapiens, UniProt P14902). Put plainly: Inhibition of IDO1 (unknown origin) assessed as reduction in kynurenine formation using L-tryptophan as substrate incubated for 60 mins by fluorescence based assay.
Data set [2] addresses T1, Indoleamine 2,3-dioxygenase 1. Put plainly: Inhibition of IDO1 in IFN-gamma stimulated human HeLa cells assessed as reduction in kynurenine formation using L-tryptophan as substrate incubated for 24 hrs by UV-spectrophotometry. It counts as cell-based.
The test system of data set [3] is Lewis lung carcinoma cell line. Put plainly: Antitumor activity against mouse LLC cells xenografted in C57BL/6 mouse assessed as tumor growth inhibition at 100 mg/kg, po administered bid for 14 days and measured for 14 days. It counts as functional, organism-based.
A short description of data set [4]: Toxicity in C57BL/6 mouse xenografted with mouse LLC cells assessed as body weight loss at 100 mg/kg, po administered bid for 14 days and measured for 14 days. It is filed as organism-based, Lewis lung carcinoma. To be noted: in vivo, 336 h.

The source made the active and inactive calls. The rule behind the calls is not given here. A value given as a limit tells only on which side of the number the result lay.

Here are results for 20 compounds from ChEMBL document CHEMBL4627301, “Discovery of novel hydroxyamidine derivatives as indoleamine 2,3-dioxygenase 1 inhibitors with in vivo anti-tumor efficacy” (Bioorg Med Chem Lett, 2020).

T1 sequence (P14902 whole entry): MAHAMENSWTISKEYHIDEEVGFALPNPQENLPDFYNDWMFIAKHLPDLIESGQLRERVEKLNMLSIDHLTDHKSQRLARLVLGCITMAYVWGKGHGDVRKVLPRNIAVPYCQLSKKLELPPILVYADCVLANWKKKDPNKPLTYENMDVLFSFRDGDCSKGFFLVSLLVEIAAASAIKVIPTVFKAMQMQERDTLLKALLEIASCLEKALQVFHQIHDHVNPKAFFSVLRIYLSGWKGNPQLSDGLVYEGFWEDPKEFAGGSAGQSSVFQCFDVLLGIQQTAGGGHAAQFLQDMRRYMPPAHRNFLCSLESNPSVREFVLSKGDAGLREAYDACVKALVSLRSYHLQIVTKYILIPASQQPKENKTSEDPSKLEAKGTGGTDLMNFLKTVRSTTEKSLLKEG

On to `CCNS(=O)(=O)CCNc1nonc1/C(=N/O)Nc1ccc(F)c(Br)c1`, for which the IC50 in data set [1] is 95 nM. Further, the EC50 in data set [2] was 41 nM.
For `NS(=O)(=O)CCONc1nonc1/C(=N/O)Nc1ccc(F)c(Br)c1` the same measures were 87 nM and 27 nM.
Consider `NNc1nonc1/C(=N/O)Nc1ccc(F)c(Br)c1`, for which the IC50 in data set [1] was 108 nM. For the same compound, the EC50 in data set [2] was determined as 556 nM.
As for `C#CCNS(=O)(=O)CCNc1nonc1/C(=N/O)Nc1ccc(F)c(Br)c1`, the IC50 in data set [1] was determined as 218 nM. Further, the EC50 in data set [2] turned out to be 33 nM.
In the same order, the values of `NS(=O)(=O)CCCNc1nonc1/C(=N/O)Nc1ccc(F)c(Br)c1` are 126 nM and 15 nM.
With `CN(C)S(=O)(=O)CCNc1nonc1/C(=N/O)Nc1ccc(F)c(Br)c1`, in data set [1], the IC50 was determined as 105 nM. Further, the EC50 in data set [2] was determined as 17 nM.
`NS(=O)(=O)CCNc1nonc1/C(=N/O)Nc1ccc(F)c(Br)c1`: the TGI entry in data set [3] was “Active”. Moreover, the IC50 in data set [1] was determined as 71 nM. In addition, in data set [2], the EC50 worked out at 11 nM. For the same compound, the Activity entry in data set [4] is reported as “Non-Toxic”.
Regarding `NS(=O)(=O)NCCNc1nonc1/C(=N/O)Nc1ccc(F)c(Br)c1`, the TGI result in data set [3] is “Active”.
In the case of `CS(=O)(=O)NNc1nonc1/C(=N/O)Nc1ccc(F)c(Br)c1`, the IC50 in data set [1] worked out at 609 nM. Besides, the EC50 in data set [2] is over 800 nM.
For `O=S(=O)(CCNc1nonc1/C(=N/O)Nc1ccc(F)c(Br)c1)NCC(F)(F)F` the same measures were 140 nM and 268 nM.
In the same order, the values of `CN(C)S(=O)(=O)CCCNc1nonc1/C(=N/O)Nc1ccc(F)c(Br)c1` are 97 nM and 20 nM.
Take `N=S1(=O)CC(Nc2nonc2/C(=N/O)Nc2ccc(F)c(Br)c2)C1` (stereo unspecified): in data set [1], the IC50 was determined as 208 nM. Further, the EC50 in data set [2] was 53 nM.
For `O=S(=O)(CCNc1nonc1/C(=N/O)Nc1ccc(F)c(Br)c1)NO`, the IC50 in data set [1] amounted to 126 nM. Further, the EC50 in data set [2] is over 800 nM.
For `O=S(=O)(CCNc1nonc1/C(=N/O)Nc1ccc(F)c(Br)c1)N1CCC1` the same measures were 191 nM and 143 nM.
In the same order, the values of `O=S1(=O)CC(Nc2nonc2/C(=N/O)Nc2ccc(F)c(Br)c2)C1` are 99 nM and 59 nM.
Consider `NS(=O)(=O)NNc1nonc1/C(=N/O)Nc1ccc(F)c(Br)c1`, for which the IC50 in data set [1] was 218 nM. In data set [2], the EC50 stood at 101 nM.
As to `NNS(=O)(=O)CCNc1nonc1/C(=N/O)Nc1ccc(F)c(Br)c1`, in data set [1], the IC50 was 135 nM. In addition, in data set [2], the EC50 was over 800 nM.
For `N#CN=S1CC(Nc2nonc2/C(=N/O)Nc2ccc(F)c(Br)c2)C1` (stereo unspecified) the same measures were 69 nM and 73 nM.
For the compound `[O-][S+]1CC(Nc2nonc2/C(=N/O)Nc2ccc(F)c(Br)c2)C1` (stereo unspecified), in data set [1], the IC50 turned out to be 212 nM. Further, the EC50 in data set [2] turned out to be 79 nM.
Turning to `O=S(=O)(CCNc1nonc1/C(=N/O)Nc1ccc(F)c(Br)c1)NCC1CC1`, the IC50 in data set [1] came to 312 nM. Further, the EC50 in data set [2] was determined as 268 nM.
